Peptide text beside a SMILES is read from it. * marks the point of attachment. X64 = O=C1C=CC(=O)N1c1cccc(CCCCCCCCCC(=O)*)c1; X46 = O=C1C=CC(=O)N1c1cccc(CCCCC(=O)*)c1; X49 = O=C1C=CC(=O)N1c1ccccc1CCCCCC(=O)*
How the values were obtained:
[1] = tested on: carrageenan-induced toe swelling; test: Carrageenan-induced toe swelling in rats; type: in vivo; conditions: SD rats; for Swelling degree 1 h: 1 h after carrageenan; for Swelling degree 3 h: 3 h after carrageenan; for Swelling degree 5 h: 5 h after carrageenan; for Swelling degree 7 h: 7 h after carrageenan
Procedure: The rats were injected once a day, and the model group was given the same volume of normal saline for 3 d and fed normally. […] The foot swelling degree was calculated according to the following formula: foot swelling degree (mL)=foot volume after inflammation-foot volume before inflammation. The number of milliliters of overflow liquid was recorded (method: a ballpoint pen is used to circle the protruding point of the right joint as a measurement mark, and the right hind feet of each rat are sequentially placed into the volume measurer, so that the hind limbs are exposed outside the barrel, and the immersion depth is at the coincidence of the circle and the liquid level. After the foot enters the liquid, the liquid level rises, and the volume of overflow liquid is the volume of the right hind foot of the rat, and the normal volume of the right hind foot of each rat is measured in sequence).

[2] = tested on: retinal vascular endothelial nuclei; test: Neovascularization in a rat model of premature retinopathy; type: in vivo, rats; conditions: for Nuclei count (retinal vascular endothelial nuclei, average per section per eyeball): dose 0.05 μM in the vitreous chamber from day 7 of modeling for one week, counted on day 14, oxygen-induced neonatal rats
Procedure: Using a fluctuating oxygen-induced animal model, newborn rats born naturally on the same day (within 12 h) were randomly divide into three groups: an oxygen model group, an oxygen treatment group and a normal control group. The oxygen model was further divided into three sub-group model groups, and the sub-group model groups and the treatment group were all placed in a semi-closed oxygen chamber made of organic glass; medical oxygen was introduced into the chamber, and the concentration was adjusted to 80%±2% by an oxygen meter; nitrogen was introduced into the oxygen chamber after 24 h, and the oxygen concentration was adjusted to 10%±2% rapidly and maintained for 24 h. This was repeated to keep the oxygen concentration in the oxygen chamber alternating between 80% and 10% every 24 h, the oxygen concentration was maintained for 7 d, and then the rats were fed in the air. The oxygen concentration was monitored 8 times a day, and the ambient temperature in the chamber was controlled at 23° C.±2° C. Bedding was replaced, feed was added, and water and mother rats were replaced once. The normal control group was placed in the animal room feeding environment. […] The oxygen treatment group was divided into three subgroups. On day 7 of modeling, X1-[…], […]-[…] and […]-X90 were injected in the vitreous chamber respectively, and the oxygen model group and the control group were only given normal saline for one week. On day 14, after the rats were anesthetized by diethyl ether and killed, eyeballs were extracted and fixed in 40 g/L paraformaldehyde solution for 24 h. Gradient dehydration by alcohol was performed, and the eyeballs were processed by xylene to be transparent. After waxing, the eyeballs were sectioned continuously to a thickness of 4μm, and the periphery of the optic disc should be avoided as much as possible. The sections were parallel to the sagittal plane from cornea to the optic disc. Ten sections of each eyeball were randomly taken and stained with hematoxylin eosin, the number of vascular endothelial nuclei that broke through the inner limiting membrane of the retina (only the number of vascular endothelial nuclei closely related to the inner limiting membrane were counted) was counted, and statistics of the average number of cells per section per eyeball was performed. Results: In the control group, there were no vascular endothelial nuclei that broke through the inner limiting membrane of the retina and grew into vitreous body, or the vascular endothelial nuclei were occasionally found in only a few sections. In the model group, there were many vascular endothelial nuclei that broke through the inner limiting membrane of the retina, some appeared alone, and some appeared in clusters. At the same time, on some sections, these vascular endothelial nuclei were also found adjacent to deep retinal vessels, confirming that they originated from the retina rather than the vitreous body or other ocular tissues. In the treatment group, only a few vascular endothelial nuclei that broke through the inner limiting membrane of retina could be seen in the sections.

[3] = tested on: adjuvant arthritis; test: Rat adjuvant arthritis (AA) animal model; type: in vivo, SD rats; conditions: 4.0 mg/kg
[4] = tested on: IL-1β production by mouse peritoneal macrophages; test: IL-1β production by mouse peritoneal macrophages (ELISA); type: cell-based; conditions: for Inhibition rate: IL-1β production, vs model group; for IL-1β: mouse peritoneal macrophages, 48 h, ELISA
Procedure: Mice were injected intraperitoneally with 1 mL of broth culture medium (containing 6% of starch). Three days later, mice peritoneal macrophages were taken aseptically and washed twice with 1640 culture medium, and the cell concentration was adjusted to 2×10^6 cells/mL. The solutions were injected into 24-well culture plates at 1 mL per well. The cells were incubated in a cell incubator for 3 h and vibrated once every 30 min to make the cells fully adhere to the wall. Then, the cells were washed twice with a culture solution to remove non-adhered cells. PBS was added to the blank group, positive drug Dex was added to the positive group, no drug was added to the model group, and polypeptides X1-X90 with low, medium and high concentrations were added to the test groups; and the cells were continuously cultured for 48 h after administration, and then centrifuged at 1000 r/min for 15 min. The supernatant was collected as a sample to be tested for IL-1β activity.

[5] = tested on: splenic lymphocytes; test: Proliferation of splenic lymphocytes in mice (ConA, MTT); type: cell-based; conditions: ConA-stimulated mouse splenic lymphocytes, 48 h
Procedure: Spleens of mice were taken out under aseptic conditions, washed with blank 1640 culture medium 3 times, ground with a 5 mL syringe core, filtered with a 200-mesh sieve, made into a single cell suspension. The suspension was centrifuged (1000 rpm×5 min), and supernatant was removed. Red blood cells were lysed by Tris-NH4Cl, and placed in ice water bath for 4 min and centrifuged (1000 rpm×5 min). The supernatant was removed, and the cells were washed twice with sterile PBS. Finally, RPMI 1640 culture solution (5 mL) containing 10% calf serum was added to suspend the cells. The cells were counted and the cell concentration was adjusted to 5×10^6 cells/mL, and the cells were cultured in a 96-well culture plate.
Blank control group, concanavalin A (ConA) group and dexamethasone (Dex) group were set in the experiment, and polypeptide X1-X90 groups were set as test groups. After 100 μL of splenic lymphocytes suspension per well was added into each group, 100 μL of blank 1640 culture solution was added into the blank control group, ConA was added into the ConA group, Dex was added into the Dex group, and ConA was added into the test groups on the basis of adding different concentrations of polypeptides X1-X90. The cells were static cultured at 37° C. in a cell incubator for 48 h. After the cultivation was completed, 20 μL of MTT was added to each well, and the cultivation was continued for 4 h. Finally, all the solutions in each well were discarded. 100 μL DMSO was added to each well and shaken, and the OD value at 570 nm was detected with a microplate reader. Five parallel experiments were set in each well.

[6] = intravenous in the tail once every five days from day 10, mean±SD

Compound | Swelling degree 1 h ([1]; 2.0 mg/kg once a day for 3 d) | Swelling degree 3 h ([1]; 2.0 mg/kg once a day for 3 d) | Swelling degree 5 h ([1]; 2.0 mg/kg once a day for 3 d) | Swelling degree 7 h ([1]; 2.0 mg/kg once a day for 3 d) | Swelling degree 1 h ([1]; 4.0 mg/kg once a day for 3 d) | Swelling degree 3 h ([1]; 4.0 mg/kg once a day for 3 d) | Swelling degree 5 h ([1]; 4.0 mg/kg once a day for 3 d) | Swelling degree 7 h ([1]; 4.0 mg/kg once a day for 3 d) | Nuclei count (retinal vascular endothelial nuclei, average per section per eyeball) [2] | Inhibition rate ([4]; dose 0.05 μM) | IL-1β ([4]; dose 0.05 μM) | Inhibition rate ([4]; dose 0.1 μM) | IL-1β ([4]; dose 0.1 μM) | Inhibition rate ([4]; dose 0.2 μM) | IL-1β ([4]; dose 0.2 μM) | A570 nm/A630 nm ([5]; polypeptide dose 0.05 μM) | Inhibition rate (%) ([5]; polypeptide dose 0.05 μM) | A570 nm/A630 nm ([5]; polypeptide dose 0.1 μM) | Inhibition rate (%) ([5]; polypeptide dose 0.1 μM) | A570 nm/A630 nm ([5]; polypeptide dose 0.2 μM) | further results
C[C@H](NC(=O)CNC(=O)[C@H](CCCNC(=N)N)NC(=O)CCCCCc1ccccc1N1C(=O)C=CC1=O)C(=O)N[C@@H](CC(=O)O)C(=O)N[C@@H](CCCNC(=N)N)C(=O)N[C@@H](C)C(=O)NCC(=O)NCC(=O)NCC(=O)NCC(=O)N[C@@H](CCCNC(=N)N)C(=O)NCC(=O)N[C@@H](CC(=O)O)C(=O)O [X17] (X49-RGADRAGGGGRGD-OH) | 0.27 ± 0.15 mg | 0.32 ± 0.14 mg | 0.38 ± 0.17 mg | 0.35 ± 0.19 mg | 0.24 ± 0.12 mg | 0.31 ± 0.19 mg | 0.37 ± 0.17 mg | 0.34 ± 0.15 mg | 7.012 ± 1.321 | 16.02% | 790.35 ± 11.07 pg/mL | 43.57% | 531.11 ± 17.61 pg/mL | 43.90% | 528.00 ± 10.53 pg/mL | 0.6219 ± 0.0629 | 7.92% | 0.5484 ± 0.1109 | 18.80% | 0.5025 ± 0.0957 | retinal vascular endothelial nuclei count ([2]; dose 0.05 μm, vitreous injection): 7.012±1.321; Clinical score ([3]; intravenous in the tail once every five days from day 10, four paws scored 0-4, max 16, mean±SD): 5.82 ± 1.05; Joint swelling degree [3, 6]: 0.78 ± 0.15 mm; Left and right paw swelling degree [3, 6]: 3.84 ± 0.88 mm; Inhibition rate (%) ([5]; polypeptide dose 0.2 μM): 25.60%
C[C@H](NC(=O)CNC(=O)[C@H](CCCNC(=N)N)NC(=O)CCCCc1cccc(N2C(=O)C=CC2=O)c1)C(=O)N[C@@H](CC(=O)O)C(=O)N[C@@H](CCCNC(=N)N)C(=O)N[C@@H](C)C(=O)NCC(=O)NCC(=O)NCC(=O)NCC(=O)N[C@@H](CCCNC(=N)N)C(=O)NCC(=O)N[C@@H](CC(=O)O)C(=O)O [X28] (X46-RGADRAGGGGRGD-OH) | 0.29 ± 0.13 mg | 0.35 ± 0.15 mg | 0.45 ± 0.17 mg | 0.36 ± 0.14 mg | 0.28 ± 0.15 mg | 0.34 ± 0.11 mg | 0.37 ± 0.17 mg | 0.35 ± 0.18 mg | 9.261 ± 3.879 | 15.78% | 792.64 ± 11.74 pg/mL | 31.90% | 640.89 ± 14.7 pg/mL | 32.28% | 637.34 ± 10.85 pg/mL | 0.5765 ± 0.0594 | 14.64% | 0.5541 ± 0.0486 | 17.96% | 0.5087 ± 0.0793 | Inhibition rate (%) ([5]; polypeptide dose 0.2 μM): 24.68%
C[C@H](NC(=O)CNC(=O)[C@H](CCCNC(=N)N)NC(=O)CCCCCCCCCc1cccc(N2C(=O)C=CC2=O)c1)C(=O)N[C@@H](CC(=O)O)C(=O)N[C@@H](CCCNC(=N)N)C(=O)N[C@@H](C)C(=O)NCC(=O)NCC(=O)NCC(=O)NCC(=O)N[C@@H](CCCNC(=N)N)C(=O)NCC(=O)N[C@@H](CC(=O)O)C(=O)O [X33] (X64-RGADRAGGGGRGD-OH) | 0.22 ± 0.13 mg | 0.37 ± 0.11 mg | 0.42 ± 0.17 mg | 0.35 ± 0.13 mg | 0.25 ± 0.14 mg | 0.31 ± 0.13 mg | 0.44 ± 0.19 mg | 0.33 ± 0.18 mg | 7.654 ± 1.142 | 25.68% | 699.41 ± 11.17 pg/mL | 34.80% | 613.62 ± 19.23 pg/mL | 36.96% | 593.32 ± 11.64 pg/mL | 0.5669 ± 0.1137 | 16.06% | 0.5297 ± 0.0479 | 21.57% | 0.4492 ± 0.1069 | Inhibition rate (%) ([5]; polypeptide dose 0.2 μM): 33.49%
